This note sets out measurements from paper PMC9329436, “Optimization of the 4-anilinoquin(az)oline scaffold as epidermal growth factor receptor (EGFR) inhibitors for chordoma utilizing a toxicology profiling assay platform” (Scientific Reports, 2022).

The structures appear in SMILES notation. Where two headings read alike, the source gives them in different places.

What all share (assay type): biochemical
Test [1] concerns the target 320 wild-type protein kinases (Homo sapiens, UniProt P27037). The following applies: ACV-R2A, singlicate. The text has this: (§1) Table S4. Profiling of two compounds at two concentrations against 320 wild-type protein kinases; singlicate measurement; Residual activities (% of control).
For test [2], the target named is T1, 320 wild-type protein kinases (Homo sapiens, UniProt Q12851).
T1 sequence (Q12851 1-820): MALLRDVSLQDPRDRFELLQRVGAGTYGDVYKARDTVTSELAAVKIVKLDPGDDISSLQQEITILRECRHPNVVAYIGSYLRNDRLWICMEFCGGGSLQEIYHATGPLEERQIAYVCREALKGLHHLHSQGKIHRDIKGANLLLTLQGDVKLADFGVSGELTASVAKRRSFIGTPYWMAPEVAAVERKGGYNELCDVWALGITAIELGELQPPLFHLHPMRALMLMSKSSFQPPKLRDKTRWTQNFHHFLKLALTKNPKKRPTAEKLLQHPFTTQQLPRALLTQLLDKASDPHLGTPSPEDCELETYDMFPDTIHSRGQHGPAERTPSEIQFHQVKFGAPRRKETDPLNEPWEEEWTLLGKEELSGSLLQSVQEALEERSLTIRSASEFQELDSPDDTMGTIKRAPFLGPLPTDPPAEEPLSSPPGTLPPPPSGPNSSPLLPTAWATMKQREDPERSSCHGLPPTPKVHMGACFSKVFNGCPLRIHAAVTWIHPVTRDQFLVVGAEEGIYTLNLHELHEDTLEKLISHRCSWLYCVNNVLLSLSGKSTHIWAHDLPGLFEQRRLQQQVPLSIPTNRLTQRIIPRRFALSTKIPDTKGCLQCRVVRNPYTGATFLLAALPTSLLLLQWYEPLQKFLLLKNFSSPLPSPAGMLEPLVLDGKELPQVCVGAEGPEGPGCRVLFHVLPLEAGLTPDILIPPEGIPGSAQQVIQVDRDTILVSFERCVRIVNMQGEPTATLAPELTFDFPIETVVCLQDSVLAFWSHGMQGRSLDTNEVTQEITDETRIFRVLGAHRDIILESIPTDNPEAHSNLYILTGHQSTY
The following applies: singlicate.
Text: as §1

The target of test [3] is 320 wild-type protein kinases (Homo sapiens, UniProt P41240). The following applies: CSK, singlicate.
320 wild-type protein kinases (Homo sapiens, UniProt P41240), sequence (P41240 whole entry): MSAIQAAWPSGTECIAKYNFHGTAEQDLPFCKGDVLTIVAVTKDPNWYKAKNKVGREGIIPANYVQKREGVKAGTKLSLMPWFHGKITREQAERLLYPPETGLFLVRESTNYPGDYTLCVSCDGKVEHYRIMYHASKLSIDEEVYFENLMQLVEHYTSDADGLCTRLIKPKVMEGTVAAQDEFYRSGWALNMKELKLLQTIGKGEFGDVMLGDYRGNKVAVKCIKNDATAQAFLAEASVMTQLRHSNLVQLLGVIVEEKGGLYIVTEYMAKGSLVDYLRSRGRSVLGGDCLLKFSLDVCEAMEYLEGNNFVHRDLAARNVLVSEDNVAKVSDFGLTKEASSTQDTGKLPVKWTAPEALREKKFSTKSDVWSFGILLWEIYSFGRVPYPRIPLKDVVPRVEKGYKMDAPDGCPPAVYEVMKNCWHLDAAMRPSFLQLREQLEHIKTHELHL
Text: as §1

The target of test [4] is 320 wild-type protein kinases (Homo sapiens, UniProt Q15375). The following applies: singlicate.
320 wild-type protein kinases (Homo sapiens, UniProt Q15375), sequence (Q15375 28-998): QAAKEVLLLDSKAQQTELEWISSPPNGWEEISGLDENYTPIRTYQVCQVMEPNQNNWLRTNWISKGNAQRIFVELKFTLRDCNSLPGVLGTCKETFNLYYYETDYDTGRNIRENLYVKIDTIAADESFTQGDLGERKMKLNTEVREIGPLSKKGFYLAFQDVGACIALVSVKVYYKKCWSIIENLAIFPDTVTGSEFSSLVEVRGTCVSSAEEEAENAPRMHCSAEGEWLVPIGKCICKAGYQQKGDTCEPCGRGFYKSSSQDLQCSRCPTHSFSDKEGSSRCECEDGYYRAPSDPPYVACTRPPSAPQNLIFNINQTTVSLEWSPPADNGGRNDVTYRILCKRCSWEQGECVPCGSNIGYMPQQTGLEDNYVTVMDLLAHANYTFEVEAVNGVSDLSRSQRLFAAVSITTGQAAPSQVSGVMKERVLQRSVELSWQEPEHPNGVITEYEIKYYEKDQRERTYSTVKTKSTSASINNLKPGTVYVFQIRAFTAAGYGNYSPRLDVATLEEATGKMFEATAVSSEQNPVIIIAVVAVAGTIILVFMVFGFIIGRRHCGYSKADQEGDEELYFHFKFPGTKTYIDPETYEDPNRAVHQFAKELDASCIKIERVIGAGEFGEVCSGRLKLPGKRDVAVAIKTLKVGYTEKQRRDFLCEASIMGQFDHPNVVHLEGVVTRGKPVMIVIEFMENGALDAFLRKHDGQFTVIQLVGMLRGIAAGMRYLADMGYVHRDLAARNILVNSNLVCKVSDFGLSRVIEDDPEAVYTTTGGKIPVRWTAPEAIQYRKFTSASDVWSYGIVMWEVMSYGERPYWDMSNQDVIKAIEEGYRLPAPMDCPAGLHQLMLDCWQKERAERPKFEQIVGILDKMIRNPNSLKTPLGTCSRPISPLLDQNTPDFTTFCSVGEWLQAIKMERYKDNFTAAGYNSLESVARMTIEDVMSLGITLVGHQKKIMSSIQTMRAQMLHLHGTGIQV
Text: as §1

In test [5] the target is T2, 320 wild-type protein kinases (Homo sapiens, UniProt P15735).
T2 sequence (P15735 1-406): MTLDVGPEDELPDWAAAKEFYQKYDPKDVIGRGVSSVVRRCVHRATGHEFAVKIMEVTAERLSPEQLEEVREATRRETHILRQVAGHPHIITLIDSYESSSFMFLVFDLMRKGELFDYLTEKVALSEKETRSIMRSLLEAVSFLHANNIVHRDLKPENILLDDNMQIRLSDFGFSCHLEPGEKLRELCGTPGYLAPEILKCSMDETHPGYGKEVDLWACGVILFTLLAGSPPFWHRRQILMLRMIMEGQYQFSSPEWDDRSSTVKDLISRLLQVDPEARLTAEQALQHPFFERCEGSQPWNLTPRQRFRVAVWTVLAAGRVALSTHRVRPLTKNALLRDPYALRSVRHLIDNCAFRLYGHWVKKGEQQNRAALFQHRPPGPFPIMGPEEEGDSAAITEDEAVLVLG
The following applies: singlicate.
Text: as §1

The target of test [6] is T3, 320 wild-type protein kinases (Homo sapiens, UniProt O00418).
T3 sequence (O00418 1-725): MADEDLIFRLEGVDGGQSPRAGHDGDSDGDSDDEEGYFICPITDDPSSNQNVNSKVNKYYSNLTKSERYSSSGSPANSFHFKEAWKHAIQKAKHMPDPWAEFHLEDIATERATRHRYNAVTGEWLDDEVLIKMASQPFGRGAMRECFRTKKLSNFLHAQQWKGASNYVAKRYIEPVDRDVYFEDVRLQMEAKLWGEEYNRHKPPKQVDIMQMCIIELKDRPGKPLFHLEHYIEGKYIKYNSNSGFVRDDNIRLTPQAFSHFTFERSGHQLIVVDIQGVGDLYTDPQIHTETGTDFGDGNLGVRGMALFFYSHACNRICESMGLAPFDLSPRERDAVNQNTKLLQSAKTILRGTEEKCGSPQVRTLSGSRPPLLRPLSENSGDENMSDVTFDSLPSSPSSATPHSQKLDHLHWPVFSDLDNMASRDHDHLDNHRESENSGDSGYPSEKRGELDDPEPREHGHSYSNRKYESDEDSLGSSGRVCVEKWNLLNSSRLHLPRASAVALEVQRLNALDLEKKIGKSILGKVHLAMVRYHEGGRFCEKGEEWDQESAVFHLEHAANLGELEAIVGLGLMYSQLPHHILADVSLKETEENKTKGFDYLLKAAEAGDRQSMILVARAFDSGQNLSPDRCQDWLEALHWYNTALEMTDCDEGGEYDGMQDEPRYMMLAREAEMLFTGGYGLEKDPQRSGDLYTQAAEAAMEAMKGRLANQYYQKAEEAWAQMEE
The conditions noted are these: EEF2K, singlicate.
Text: as §1

Test [7] deals with 320 wild-type protein kinases (Homo sapiens, UniProt Q9BYP7). The conditions noted are these: kinase WNK3, singlicate.
320 wild-type protein kinases (Homo sapiens, UniProt Q9BYP7), sequence (Q9BYP7 whole entry): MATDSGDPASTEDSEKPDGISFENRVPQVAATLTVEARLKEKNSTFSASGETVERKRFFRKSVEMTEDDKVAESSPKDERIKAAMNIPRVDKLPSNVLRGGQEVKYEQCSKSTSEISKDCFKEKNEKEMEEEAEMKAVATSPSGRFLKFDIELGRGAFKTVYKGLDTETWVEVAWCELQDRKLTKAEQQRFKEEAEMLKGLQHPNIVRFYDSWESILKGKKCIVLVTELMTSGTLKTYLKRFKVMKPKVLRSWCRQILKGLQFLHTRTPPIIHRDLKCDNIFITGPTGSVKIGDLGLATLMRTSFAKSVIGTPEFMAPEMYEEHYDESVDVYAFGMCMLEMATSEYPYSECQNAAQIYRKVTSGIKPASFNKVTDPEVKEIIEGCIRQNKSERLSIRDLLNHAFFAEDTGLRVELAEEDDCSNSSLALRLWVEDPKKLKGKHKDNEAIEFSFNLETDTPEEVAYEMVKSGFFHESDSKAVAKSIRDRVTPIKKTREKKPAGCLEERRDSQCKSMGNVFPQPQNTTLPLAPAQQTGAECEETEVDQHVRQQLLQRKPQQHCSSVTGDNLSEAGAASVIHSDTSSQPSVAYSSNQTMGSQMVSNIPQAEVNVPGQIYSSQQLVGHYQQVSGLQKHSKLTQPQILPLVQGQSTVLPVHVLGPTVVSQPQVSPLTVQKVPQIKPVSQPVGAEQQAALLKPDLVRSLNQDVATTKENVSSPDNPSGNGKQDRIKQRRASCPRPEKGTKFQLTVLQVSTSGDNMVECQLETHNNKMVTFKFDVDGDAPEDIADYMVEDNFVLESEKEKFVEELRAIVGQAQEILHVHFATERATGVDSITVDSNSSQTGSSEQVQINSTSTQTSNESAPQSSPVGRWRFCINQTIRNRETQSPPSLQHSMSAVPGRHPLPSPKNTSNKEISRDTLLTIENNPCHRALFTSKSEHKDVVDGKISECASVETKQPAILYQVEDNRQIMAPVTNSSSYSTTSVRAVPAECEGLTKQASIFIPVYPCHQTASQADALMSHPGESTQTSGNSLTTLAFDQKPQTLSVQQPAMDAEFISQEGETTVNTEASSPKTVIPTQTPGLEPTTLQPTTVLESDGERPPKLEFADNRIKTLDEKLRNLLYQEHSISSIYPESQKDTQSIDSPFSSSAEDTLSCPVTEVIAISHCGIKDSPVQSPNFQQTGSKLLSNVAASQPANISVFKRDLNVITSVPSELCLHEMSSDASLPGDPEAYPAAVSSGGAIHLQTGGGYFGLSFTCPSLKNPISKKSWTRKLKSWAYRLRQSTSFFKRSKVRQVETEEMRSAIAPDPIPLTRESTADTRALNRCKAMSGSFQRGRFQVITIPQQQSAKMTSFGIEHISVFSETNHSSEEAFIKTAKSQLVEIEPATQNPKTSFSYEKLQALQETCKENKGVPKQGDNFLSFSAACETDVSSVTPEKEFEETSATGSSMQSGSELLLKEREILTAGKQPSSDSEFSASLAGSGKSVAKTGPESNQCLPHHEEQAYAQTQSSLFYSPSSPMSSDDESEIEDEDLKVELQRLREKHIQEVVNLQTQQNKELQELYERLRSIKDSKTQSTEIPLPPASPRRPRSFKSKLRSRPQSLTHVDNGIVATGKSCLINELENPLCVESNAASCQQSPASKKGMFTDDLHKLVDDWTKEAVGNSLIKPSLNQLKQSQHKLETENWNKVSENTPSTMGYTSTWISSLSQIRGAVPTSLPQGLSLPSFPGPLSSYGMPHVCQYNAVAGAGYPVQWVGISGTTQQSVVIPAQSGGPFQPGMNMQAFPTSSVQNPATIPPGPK
Text: as §1

Test [8] concerns the target 320 wild-type protein kinases (Homo sapiens, UniProt Q00536). The conditions noted are these: CDK16/CycY, singlicate.
Text: as §1

In test [9] the target is 320 wild-type protein kinases (Homo sapiens, UniProt Q9H4A3). The conditions noted are these: kinase WNK1, singlicate.
Text: as §1

320 wild-type protein kinases (Homo sapiens, UniProt Q00536), sequence (Q00536 whole entry): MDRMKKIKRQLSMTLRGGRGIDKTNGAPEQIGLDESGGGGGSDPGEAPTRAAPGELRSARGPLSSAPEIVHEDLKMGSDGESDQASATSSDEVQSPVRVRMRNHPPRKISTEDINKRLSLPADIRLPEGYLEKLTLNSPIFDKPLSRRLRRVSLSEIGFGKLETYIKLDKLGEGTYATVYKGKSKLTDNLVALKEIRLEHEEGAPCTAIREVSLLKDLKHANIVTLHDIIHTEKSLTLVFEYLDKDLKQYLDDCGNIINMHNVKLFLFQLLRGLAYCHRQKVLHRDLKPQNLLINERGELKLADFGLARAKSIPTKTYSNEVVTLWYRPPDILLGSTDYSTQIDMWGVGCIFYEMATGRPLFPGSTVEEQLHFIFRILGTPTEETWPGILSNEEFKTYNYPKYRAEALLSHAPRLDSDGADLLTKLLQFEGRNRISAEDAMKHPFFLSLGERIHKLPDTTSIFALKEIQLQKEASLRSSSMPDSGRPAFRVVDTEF
320 wild-type protein kinases (Homo sapiens, UniProt P27037), sequence (P27037 20-513): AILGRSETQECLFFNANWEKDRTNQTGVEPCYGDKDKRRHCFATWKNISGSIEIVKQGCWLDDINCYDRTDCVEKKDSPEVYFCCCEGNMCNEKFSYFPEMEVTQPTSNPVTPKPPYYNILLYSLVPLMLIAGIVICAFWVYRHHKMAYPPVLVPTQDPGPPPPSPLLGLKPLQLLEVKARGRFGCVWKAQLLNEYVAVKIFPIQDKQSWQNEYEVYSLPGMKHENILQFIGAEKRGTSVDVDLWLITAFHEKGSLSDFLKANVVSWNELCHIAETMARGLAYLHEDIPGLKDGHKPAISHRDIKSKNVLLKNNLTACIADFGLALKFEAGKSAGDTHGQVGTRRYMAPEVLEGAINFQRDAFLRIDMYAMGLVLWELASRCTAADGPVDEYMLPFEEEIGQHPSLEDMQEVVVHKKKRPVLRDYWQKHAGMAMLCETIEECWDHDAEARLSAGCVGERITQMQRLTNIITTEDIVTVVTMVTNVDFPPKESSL

As for `C#Cc1cc(Nc2ncnc3cc(OC)c(OC)cc23)ccc1Cl` [Compound 45], the Residual activity was 96 % of control in test [1] (1.0E-06 M); 101 % of control in test [1] (1.0E-07 M); 113 % of control in [2] (MAP4K2, 1.0E-06 M); 105 % of control in test [2] (MAP4K2, 1.0E-07 M); 92 % of control in test [3] (1.0E-06 M); 106 % of control in test [3] (1.0E-07 M). Further, the Residual activity is 58 % of control in [4] (EPHA7, 1.0E-06 M); 84 % of control in test [4] (EPHA7, 1.0E-07 M); 103 % of control in test [5] (PHKG2, 1.0E-06 M); 95 % of control in test [5] (PHKG2, 1.0E-07 M); 83 % of control in test [6] (1.0E-06 M); 91 % of control in test [6] (1.0E-07 M). Also, the Residual activity is given as 90 % of control in test [8] (1.0E-06 M) and 86 % of control in test [8] (1.0E-07 M). For the same compound, the “Residual activity, WNK3” value is recorded as 105 % of control in test [7] (assay conc. 1.0E-06 M) and 124 % of control in test [7] (assay conc. 1.0E-07 M). In addition, the “Residual activity, WNK1” value in [9] (assay conc. 1.0E-06 M) was 95 % of control; in test [9] (assay conc. 1.0E-07 M), 93 % of control.

On to `C#Cc1cc(Nc2ncnc3cc(I)ccc23)ccc1Cl` [Compound 41], for which the Residual activity in [1] (1.0E-06 M) is recorded as 92 % of control; in [1] (1.0E-07 M), 96 % of control; in [2] (MAP4K2, 1.0E-06 M) it was 94 % of control; in test [2] (MAP4K2, 1.0E-07 M), 99 % of control; in test [3] (1.0E-06 M), 92 % of control; in test [3] (1.0E-07 M) it was 110 % of control. For the same compound, the Residual activity is given as 94 % of control in [4] (EPHA7, 1.0E-06 M); 85 % of control in [4] (EPHA7, 1.0E-07 M); 98 % of control in test [5] (PHKG2, 1.0E-06 M); 94 % of control in test [5] (PHKG2, 1.0E-07 M); 87 % of control in [6] (1.0E-06 M); 94 % of control in [6] (1.0E-07 M). The Residual activity in [8] (1.0E-06 M) and in [8] (1.0E-07 M) was 84 % of control throughout. Further, the figures for the “Residual activity, WNK3” value in test [7] (assay conc. 1.0E-06 M) and in test [7] (assay conc. 1.0E-07 M) were 115 % of control and 118 % of control, respectively. Besides, the “Residual activity, WNK1” value in test [9] (assay conc. 1.0E-06 M) is recorded as 70 % of control; in test [9] (assay conc. 1.0E-07 M), 84 % of control.
